Experimental data reported in US20080027025A1 (The Regents of the University of California, priority 2004, published 2008).

Assays:
[1] = system: N2a cells; assay type: cell-based, Murine
[2] = system: Reporter T cells containing an integrated loxP-STOP-loxP GFP expression gene; assay type: cell-based
[3] = system: cells; details: cited from earlier work
[4] = system: N2aPK1 cells; assay type: cell-based, murine

Compound	cell surface association of rPrP^C-546 [1]	cellular uptake of rPrP^C-546 [1]	uptake of rPrP^C(23-90)-Cre into cells and subsequent DNA recombination (GFP-positive cells) [2]	other results
C=C1[C@@H](C)[C@H]2[C@H](Cc3ccccc3)NC(=O)[C@]23[C@H](OC(C)=O)/C=C/[C@@](C)(O)C(=O)[C@@H](C)C/C=C/[C@H]3[C@@H]1O [cytochalasin D]	did not block	prevented the cellular uptake	–	–
C[C@@H]1[C@H](O)[C@@H](C)/C=C/C=C/CC/C=C/C=C/C=C/C=C/C(O[C@H]2O[C@H](C)[C@@H](O)[C@H](N)[C@@H]2O)CC2O[C@](O)(CC(O)C(O)CCC(O)CC(O)CC(O)CC(=O)O[C@H]1C)CC(O)C2C(=O)O (stereo partly shown) [nystatin]	–	–	–	internalization of rPrP^C-Alexa546 [1]: prevented
chondroitin sulfate B	–	–	inhibited protein uptake into cells and subsequent DNA recombination in a dose-dependent manner	–
heparin	–	–	inhibited protein uptake into cells and subsequent DNA recombination in a dose-dependent manner	surface binding of rPrP^C-Alexa546 [1]: prevented; PrP^C infection of cells [3]: can prevent
CCN(c1nc(N)c(C(=O)NC(=N)N)nc1Cl)C(C)C [EIPA]	did not block	prevented the cellular uptake	–	PrP^C to PrP^Sc conversion (proteinase K resistant PrP) [4]: concentration-dependent inhibition
